Broadly, the melting point is the temperature, or range, at which the solid turns liquid.

The results in this text go back to patent US6911444B2, “Non-steroidal IL-5 inhibitors, processes and intermediates for their preparation and pharmaceutical compositions comprising said inhibitors” (Janssen Pharmaceutics N.V., priority 1999, dated 2005).

`Cc1nc(C(C)(C)c2c(Cl)cc(-n3ncc(=O)[nH]c3=O)cc2Cl)sc1C(=O)c1ccccc1` [Compound 107] displayed a melting point of 174 °C.
The figure for `CC1(C)OCC(COC(=O)c2sc(C(C)(C)c3c(Cl)cc(-n4ncc(=O)[nH]c4=O)cc3Cl)nc2-c2ccccc2)O1` (centres unmarked) [Compound 92] is 163 °C; for `COCCOCCOC(=O)c1sc(C(C)(C)c2c(Cl)cc(-n3ncc(=O)[nH]c3=O)cc2Cl)nc1-c1ccccc1` [Compound 82] it is 151 °C.
The figure for `CC(C)(c1nc(-c2ccccc2)c(C(=O)SC2CCOC2=O)s1)c1c(Cl)cc(-n2ncc(=O)[nH]c2=O)cc1Cl` (centres unmarked) [Compound 4] is 212 °C; for `CC(C)(c1nc(-c2ccccc2)c(C(=O)OC2CCOC2=O)s1)c1c(Cl)cc(-n2ncc(=O)[nH]c2=O)cc1Cl` (centres unmarked) [Compound 3] it is 208 °C; for `COC(=O)C(CCCO)OC(=O)c1sc(C(C)(C)c2c(Cl)cc(-n3ncc(=O)[nH]c3=O)cc2Cl)nc1-c1ccccc1` (centres unmarked) [Compound 121] it is 100 °C.
The figure for `Cc1oc(=O)oc1COC(=O)Cc1sc(C(C)(C)c2c(Cl)cc(-n3ncc(=O)[nH]c3=O)cc2Cl)nc1-c1ccccc1` [Compound 72] is 149 °C; for `CCOC(=O)C(Cl)(Cl)c1ccccc1-c1nc(C(C)(C)c2c(Cl)cc(-n3ncc(=O)[nH]c3=O)cc2Cl)no1` [Compound 6] it is 157 °C.
`CN(C)S(=O)(=O)N1CCN(CCO)CC1` [Compound 83] registered a melting point of 186 °C.
The figure for `CCCCCCCCCCCCCCCOC(=O)Cc1sc(C(C)(C)c2c(Cl)cc(-n3ncc(=O)[nH]c3=O)cc2Cl)nc1-c1ccccc1` [Compound 2] is 80 °C.
The figure for `CC(C)(c1nc(-c2ccccc2)c(C(=O)OCOC(=O)C2CCCCC2)s1)c1c(Cl)cc(-n2ncc(=O)[nH]c2=O)cc1Cl` [Compound 125] is 130 °C.
The figure for `CC(C)(c1nc(-c2ccccc2)c(C(=O)OCC(F)(F)F)s1)c1c(Cl)cc(-n2ncc(=O)[nH]c2=O)cc1Cl` [Compound 78] is 180 °C.
On to `CC(C)(c1nc(-c2ccccc2)c(CSC2CCOC2=O)s1)c1c(Cl)cc(-n2ncc(=O)[nH]c2=O)cc1Cl` (centres unmarked) [Compound 116], for which the melting point is 100 °C.
The figure for `C#CCOC(=O)c1sc(C(C)(C)c2c(Cl)cc(-n3ncc(=O)[nH]c3=O)cc2Cl)nc1-c1ccccc1` [Compound 88] is 180 °C; for `CN1CCN(CCOC(=O)c2sc(C(C)(C)c3c(Cl)cc(-n4ncc(=O)[nH]c4=O)cc3Cl)nc2-c2ccccc2)S1(=O)=O` [Compound 128] it is 112 °C.
The figure for `CN(C)S(=O)(=O)NCCOC(=O)c1sc(C(C)(C)c2c(Cl)cc(-n3ncc(=O)[nH]c3=O)cc2Cl)nc1-c1ccccc1` [Compound 76] is 150 °C; for `CC(OC(=O)c1sc(C(C)(C)c2c(Cl)cc(-n3ncc(=O)[nH]c3=O)cc2Cl)nc1-c1ccccc1)OC(=O)C(c1ccccc1)C1CCCC1` (centres unmarked) [Compound 141] it is 110 °C.
The figure for `CN(C)S(=O)(=O)N1CCN(CCOC(=O)c2sc(C(C)(C)c3c(Cl)cc(-n4ncc(=O)[nH]c4=O)cc3Cl)nc2-c2ccccc2)CC1` [Compound 84] is 220 °C; for `C[S+]([O-])CSC(=O)Cc1sc(C(C)(C)c2c(Cl)cc(-n3ncc(=O)[nH]c3=O)cc2Cl)nc1-c1ccccc1` (centres unmarked) [Compound 104] it is 154 °C.
In turn, `CC(C)(c1nc(-c2ccccc2)c(C(=O)OCCNS(=O)(=O)N2CCCCC2)s1)c1c(Cl)cc(-n2ncc(=O)[nH]c2=O)cc1Cl` [Compound 77] showed a melting point of 126 °C.
The figure for `CC(C)(c1nc(-c2ccccc2)c(C(=O)OC2CCCC(O)C2)s1)c1c(Cl)cc(-n2ncc(=O)[nH]c2=O)cc1Cl` (centres unmarked) [Compound 140] is 175 °C.
For `CCOP(=O)(COC(=O)c1sc(C(C)(C)c2c(Cl)cc(-n3ncc(=O)[nH]c3=O)cc2Cl)nc1-c1ccccc1)OCC`, the melting point came to 88 °C.
Molecule `CC(OC(=O)OCCS(C)(=O)=O)OC(=O)c1sc(C(C)(C)c2c(Cl)cc(-n3ncc(=O)[nH]c3=O)cc2Cl)nc1-c1ccccc1` (centres unmarked) [Compound 110] had a melting point of 104 °C.
With `CCCC(=O)OCOC(=O)c1sc(C(C)(C)c2c(Cl)cc(-n3ncc(=O)[nH]c3=O)cc2Cl)nc1-c1ccccc1` [Compound 108], the melting point turned out to be 146 °C.
The figure for `COCCOC(=O)OC(C)OC(=O)c1sc(C(C)(C)c2c(Cl)cc(-n3ncc(=O)[nH]c3=O)cc2Cl)nc1-c1ccccc1` (centres unmarked) [Compound 99] is 88 °C; for `CC(C)(c1nc(-c2ccccc2)c(C(=O)OCCN2CCN(S(N)(=O)=O)CC2)s1)c1c(Cl)cc(-n2ncc(=O)[nH]c2=O)cc1Cl` [Compound 79] it is 133 °C.
The figure for `CC(C)(c1nc(-c2ccccc2)c(CCC(=O)OC2CCOC2=O)s1)c1c(Cl)cc(-n2ncc(=O)[nH]c2=O)cc1Cl` (centres unmarked) [Compound 81] is 190 °C; for `Cc1oc(=O)oc1CSC(=O)c1sc(C(C)(C)c2c(Cl)cc(-n3ncc(=O)[nH]c3=O)cc2Cl)nc1-c1ccccc1` [Compound 71] it is 97 °C.
The figure for `CC(C)(c1nc(-c2cccs2)c(CC(=O)OC2CCOC2=O)s1)c1c(Cl)cc(-n2ncc(=O)[nH]c2=O)cc1Cl` (centres unmarked) [Compound 5] is 110 °C; for `CC(C)(c1nc(-c2ccccc2)c(C(=O)OCCN2CCN(S(=O)(=O)N3CCCC3)CC2)s1)c1c(Cl)cc(-n2ncc(=O)[nH]c2=O)cc1Cl` [Compound 146] it is 196 °C.
The molecule `C=CCOC(=O)c1sc(C(C)(C)c2c(Cl)cc(-n3ncc(=O)[nH]c3=O)cc2Cl)nc1-c1ccccc1` [Compound 87] yielded a melting point of 172 °C.
The figure for `CC(C)(c1nc(-c2ccccc2)c(CC(=O)OC2CCOC2=O)s1)c1c(Cl)cc(-n2ncc(=O)[nH]c2=O)cc1Cl` (centres unmarked) [Compound 1] is 72 °C; for `CC(C)(c1nc(-c2ccccc2)c(C(=O)OCC2COC(=S)O2)s1)c1c(Cl)cc(-n2ncc(=O)[nH]c2=O)cc1Cl` (centres unmarked) [Compound 111] it is 130 °C.
`CC(=O)c1sc(C(C)(C)c2c(Cl)cc(-n3ncc(=O)[nH]c3=O)cc2Cl)nc1-c1ccccc1` [Compound 105] gave a melting point of 212 °C.
The figure for `CC(C)(c1nc(-c2ccccc2)c(C(=O)OC2COC(=O)C2O)s1)c1c(Cl)cc(-n2ncc(=O)[nH]c2=O)cc1Cl` (centres unmarked) [Compound 131] is 144 °C; for `CON(C)C(=O)c1sc(C(C)(C)c2c(Cl)cc(-n3ncc(=O)[nH]c3=O)cc2Cl)nc1-c1ccccc1` [Compound 89] it is 112 °C; for `CCOC(=O)CCc1sc(C(C)(C)c2c(Cl)cc(-n3ncc(=O)[nH]c3=O)cc2Cl)nc1-c1ccccc1` [Compound 80] it is 155 °C.
The figure for `CC(C)(c1nc(-c2ccccc2)c(C(=O)OC2CCCC(OC(=O)c3sc(C(C)(C)c4c(Cl)cc(-n5ncc(=O)[nH]c5=O)cc4Cl)nc3-c3ccccc3)C2)s1)c1c(Cl)cc(-n2ncc(=O)[nH]c2=O)cc1Cl` (centres unmarked) [Compound 139] is 180 °C.
